In PMC10245560 (bioRxiv, 2023):

Columns and labels:
B. subtilis = settings: ref Fage et al., 2020; cited from earlier work
B. subtilis 168 = experiment: Bacterial cell wall integrity; format: cell-based; settings: phase-contrast microscopy
[1] = HS-AFM of fibrils on supported lipid bilayers; format: physicochemical; settings: supported lipid bilayer with lipid II, errors are standard deviation, SD

| Molecule | activity against B. subtilis (B. subtilis) | cell-shape deformations / blebbing phenotype (B. subtilis 168) | height of fibrils above the membrane surface [1] [nm] |
| --- | --- | --- | --- |
| C=C(CC/C=C\C=C\C[C@H](C)CC(=O)C[C@@H](O)CNC(=O)[C@H](C)[C@@H](C)OC(N)=O)C[C@@H](C)C/C(C)=C/C(=O)O [kalimantacin] | not active | – | – |
| CN[C@H](CC(C)C)C(=O)N[C@H]1C(=O)N[C@@H](CC(N)=O)C(=O)N[C@H]2C(=O)N[C@H]3C(=O)N[C@H](C(=O)N[C@H](C(=O)O)c4cc(O)cc(O)c4-c4cc3ccc4O)[C@H](O)c3ccc(c(Cl)c3)Oc3cc2cc(c3O[C@@H]2O[C@H](CO)[C@@H](O)[C@H](O)[C@H]2O[C@H]2C[C@](C)(N)[C@H](O)[C@H](C)O2)Oc2ccc(cc2Cl)[C@H]1O [vancomycin] | – | similarly observed | – |
| hypeptin | – | similarly observed | – |
| teixobactin | – | similarly observed | 0.8 ± 0.1 |
